Results on eight molecules are retold here after patent publication US5180665A, “Method for quantitatively assaying the presence of diarrhetic shellfish poisoning toxins in marine samples” (priority 1990, dated 1993).

Where two headings read alike, the source gives them in different places. Numbered stars: 1 amine (or outer) side, 2 acyl side, 3 side chain; on linkers, the order of the positions; unused ones are H or OH. Bridge positions count the residues as written; N and C are the ends. Square brackets hold non-standard residues; d marks the D form. Peptide text beside a SMILES is read from it. Adda = CO[C@@H](Cc1ccccc1)[C@@H](C)/C=C(C)/C=C/[C@H](N[*:1])[C@H](C)C(=O)[*:2]; dAsp(3S-Me) = C[C@H](C(=O)[*:3])[C@@H](N[*:1])C(=O)[*:2]; d(γGlu) = O=C(O)[C@@H](CCC(=O)[*:2])N[*:1]; NMeDha = C=C(NC)C(=O)O

The test system of series [1] is protein phosphatase-1 (PP1) catalytic subunit. The experiment in a line: Standard phosphorylase a phosphatase assay, inhibition of PP1 catalytic subunit. It counts as biochemical, rabbit. The following applies: for inhibition of PP1: result in words.
The target of series [2] is T1, protein phosphatase-2A (PP2A) catalytic subunit (Oryctolagus cuniculus, UniProt P67777).
T1 construct: Homogeneous PP-1 and -2A catalytic subunits were purified from rabbit skeletal muscle; from tissue; host or cells: rabbit skeletal muscle
T1 sequence (P67777 whole entry): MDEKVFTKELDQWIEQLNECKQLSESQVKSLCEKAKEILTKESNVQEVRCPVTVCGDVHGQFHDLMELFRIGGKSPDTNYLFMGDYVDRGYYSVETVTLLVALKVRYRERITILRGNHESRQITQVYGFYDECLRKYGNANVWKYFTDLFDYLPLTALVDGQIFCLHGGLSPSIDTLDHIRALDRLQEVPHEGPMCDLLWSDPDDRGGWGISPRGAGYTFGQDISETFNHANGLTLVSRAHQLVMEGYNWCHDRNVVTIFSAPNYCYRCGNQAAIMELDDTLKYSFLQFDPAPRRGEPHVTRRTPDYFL
The experiment in a line: Standard phosphorylase a phosphatase assay, inhibition of PP2A catalytic subunit. As to conditions: for inhibition of PP2A: result in words. It counts as biochemical, rabbit.

For the next series, the system named is mouse skin. The following applies: cited from earlier work.
For series [3], the system named is protein phosphatase-1 (PP1). The following applies: literature, result in words; cited from earlier work.
In series [4] the test system is protein phosphatase-2A (PP2A). The following applies: literature, result in words; cited from earlier work.
Another series concerns PP1/PP2A. Description: LC-linked protein phosphatase bioassay, cross-reactivity. It is filed as biochemical, rabbit. As to conditions: result in words.

For `CO[C@@H]1C[C@@H](C[C@H]2CC[C@H](C)[C@H]([C@@H](C)C(=O)O)O2)O[C@]2(O[C@](C)([C@H]3CC[C@@](C)([C@@H]4O[C@@H]([C@H]5O[C@@](O)(CO)[C@H](C)C[C@@H]5C)C[C@@H]4C)O3)C[C@H]2C)[C@@H]1C` [nigericin], the “inhibition of PP1” value in series [1] is recorded as “not inhibited”. Besides, the “inhibition of PP2A” value in series [2] is given as “not inhibited”.
As a reminder, the IC50 is the concentration that gives 50% inhibition. `C=C1[C@@H](O)[C@@H]2O[C@]3(CC[C@H](/C=C/[C@@H](C)[C@@H]4CC(C)=C[C@@]5(O[C@H](C[C@@](C)(O)C(=O)O)CC[C@H]5O)O4)O3)CC[C@H]2O[C@@H]1[C@@H](O)C[C@H](C)[C@H]1O[C@@]2(CCCCO2)CC[C@H]1C` [okadaic acid]: the IC50 in series [1] (standard phosphorylase a phosphatase assay, 1 mU/ml PP1, pH 7.0, 30° C.) stood at 19000 pM; in series [2] (PP2A diluted to 0.03 mU/ml in the standard assay, read-out: IC50 for okadaic acid with diluted PP2A), 40 pM. Further, the “fold stronger inhibition of PP2A than PP1” value in series [2] (PP2A relative to PP1, standard assay) is 90(+10) fold. In addition, the tumour promotion result in the series on mouse skin (result in words) is reported as “powerful tumour promoters”. The “tumour promoting potency compared with phorbol esters” value in the series on mouse skin (two-stage carcinogenesis, mouse skin, versus phorbol esters) was “comparable potency”. Moreover, the “inhibitor of protein phosphatase-1” value in series [3] was “potent and specific inhibitor”. Also, the “inhibitor of protein phosphatase-2A” value in series [4] is “potent and specific inhibitor”.
With `CC[C@@H](C(=O)[C@@H](C)[C@@H](O)[C@H](C)[C@@H]1O[C@@H]([C@@H](CC)C(=O)O)CC[C@@H]1C)[C@H]1O[C@]2(C=C[C@@H](O)[C@]3(CC[C@@](C)([C@H]4CC[C@](O)(CC)[C@H](C)O4)O3)O2)[C@H](C)C[C@@H]1C` [salinomycin], the “inhibition of PP1” value in series [1] is “not inhibited”. For the same molecule, in series [2], the “inhibition of PP2A” value is recorded as “not inhibited”.
On to dinophysistoxin-1, for which the “fold stronger inhibition of PP2A than PP1” value in series [2] (rabbit) is on record as 90(+10) fold. In the series on mouse skin (mouse, in vivo), the “tumour promoting potency compared with phorbol esters” value is listed as “comparable potency” and the tumour promotion result is on record as “powerful tumour promoters”.
With `C/C(=C/C=C/[C@@H](C)C(=O)O)[C@H]1CN[C@H](C(=O)O)[C@H]1CC(=O)O` [domoic acid], in the series on PP1/PP2A, the “cross-reactivity in the LC-linked protein phosphatase bioassay” value was “does not cross-react”.
For `C=C1C(=O)N[C@H](C)C(=O)N[C@@H](CC(C)C)C(=O)N[C@@H](C(=O)O)[C@H](C)C(=O)N[C@@H](CCCNC(=N)N)C(=O)N[C@@H](/C=C/C(C)=C/[C@H](C)[C@H](Cc2ccccc2)OC)[C@H](C)C(=O)N[C@@H](C(=O)O)CCC(=O)N1C` [Microcystin-LR] (R[Adda][d(γGlu)][NMeDha][dA]L[dAsp(3S-Me)]-OH; lactam N-7), the IC50 is 100 pM in series [1] (pH 7) and 100 pM in series [2] (pH 7, read-out: IC50 for PP2A inhibition).
Regarding `CC[C@@]1([C@@H]2O[C@@H]([C@H]3O[C@@](O)(CO)[C@H](C)C[C@@H]3C)C[C@@H]2C)CC[C@H]([C@]2(C)CC[C@]3(C[C@H](O)[C@@H](C)[C@@H]([C@@H](C)[C@@H](OC)[C@H](C)C(=O)O)O3)O2)O1` [monensin], in series [1], the “inhibition of PP1” value is “not inhibited”. For the same molecule, in series [2], the “inhibition of PP2A” value is “not inhibited”.
For the molecule `CO[C@@H]1[C@@H](OC)[C@H](C)[C@@](O)(CC(=O)O)O[C@H]1[C@H](C)[C@H]1O[C@@]2(CC[C@@](C)([C@H]3CC[C@@](C)([C@@H]4O[C@@H]([C@H]5O[C@](C)(O)[C@H](C)C[C@@H]5C)C[C@@H]4O[C@@H]4C[C@H](OC)[C@@H](OC)[C@H](C)O4)O3)O2)C[C@H](O)[C@H]1C` [maduramycin], the “inhibition of PP1” value in series [1] is recorded as “not inhibited”. The “inhibition of PP2A” value in series [2] is “not inhibited”.
